Data: PubChem BioAssay (NCI)
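The concentration for 50% growth inhibition is given as GI50. At the TGI there is no net growth.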

What was measured:
Test in all cases: NCI anticancer screen, dose series, 384-well format
ACHN renal = test system: ACHN renal
NCI-H460 NSCLC = test system: NCI-H460 NSCLC
HL-60(TB) leukemia = test system: HL-60(TB) leukemia
DU-145 prostate = test system: DU-145 prostate
SK-MEL-5 melanoma = test system: SK-MEL-5 melanoma
HOP-62 NSCLC = test system: HOP-62 NSCLC
MDA-MB-435 melanoma = test system: MDA-MB-435 melanoma
RXF 393 renal = test system: RXF 393 renal
MDA-MB-231 breast = test system: MDA-MB-231 breast
HT29 colon = test system: HT29 colon
OVCAR-5 ovarian = test system: OVCAR-5 ovarian
SR leukemia = test system: SR leukemia
HCT-116 colon = test system: HCT-116 colon
HCT-15 colon = test system: HCT-15 colon
PC-3 prostate = test system: PC-3 prostate
K-562 leukemia = test system: K-562 leukemia
UACC-62 melanoma = test system: UACC-62 melanoma
SF-539 CNS = test system: SF-539 CNS
CAKI-1 renal = test system: CAKI-1 renal
HS 578T breast = test system: HS 578T breast
MDA-MB-468 breast = test system: MDA-MB-468 breast
NCI-H522 lung = test system: NCI-H522 lung
COLO 205 colon = test system: COLO 205 colon
MOLT-4 leukemia = test system: MOLT-4 leukemia
SK-MEL-28 melanoma = test system: SK-MEL-28 melanoma
A549 NSCLC = test system: A549 NSCLC
BT-549 breast = test system: BT-549 breast
TK-10 renal = test system: TK-10 renal
MCF7 breast = test system: MCF7 breast
EKVX NSCLC = test system: EKVX NSCLC
OVCAR-4 ovarian = test system: OVCAR-4 ovarian
786-0 renal = test system: 786-0 renal
SK-MEL-2 melanoma = test system: SK-MEL-2 melanoma
SNB-75 CNS = test system: SNB-75 CNS
SW-620 colon = test system: SW-620 colon
UACC-257 melanoma = test system: UACC-257 melanoma
NCI-H226 lung = test system: NCI-H226 lung
CCRF-CEM leukemia = test system: CCRF-CEM leukemia
HCC-2998 colon = test system: HCC-2998 colon
SNB-19 CNS = test system: SNB-19 CNS
OVCAR-8 ovarian = test system: OVCAR-8 ovarian
MALME-3M melanoma = test system: MALME-3M melanoma
SN12C renal = test system: SN12C renal
LOX IMVI melanoma = test system: LOX IMVI melanoma
M14 melanoma = test system: M14 melanoma
T-47D breast = test system: T-47D breast
NCI/ADR-RES ovarian = test system: NCI/ADR-RES ovarian

CN1CC[C@@H](c2c(O)cc(O)c3c(=O)cc(-c4ccc(C(F)(F)F)cc4Cl)oc23)[C@@H]1CO
GI50 (ACHN renal): 12.6 µM
TGI (ACHN renal): 25.7 µM
GI50 (NCI-H460 NSCLC): 14.5 µM
TGI (NCI-H460 NSCLC): 28 µM
GI50 (HL-60(TB) leukemia): 9.56 µM
TGI (HL-60(TB) leukemia): 21.9 µM
GI50 (DU-145 prostate): 15.5 µM
TGI (DU-145 prostate): 29.3 µM
GI50 (SK-MEL-5 melanoma): 16.7 µM
TGI (SK-MEL-5 melanoma): 30.4 µM
GI50 (HOP-62 NSCLC): 14.4 µM
TGI (HOP-62 NSCLC): 27.7 µM
GI50 (MDA-MB-435 melanoma): 20.5 µM
TGI (MDA-MB-435 melanoma): 34.9 µM
GI50 (RXF 393 renal): 12.3 µM
TGI (RXF 393 renal): 24.8 µM
GI50 (MDA-MB-231 breast): 15.9 µM
TGI (MDA-MB-231 breast): 29.9 µM
GI50 (HT29 colon): 17.6 µM
TGI (HT29 colon): 31.8 µM
GI50 (OVCAR-5 ovarian): 16.5 µM
TGI (OVCAR-5 ovarian): 37.3 µM
GI50 (SR leukemia): 1.88 µM
TGI (SR leukemia): 5.32 µM
GI50 (HCT-116 colon): 12.4 µM
TGI (HCT-116 colon): 25.4 µM
GI50 (HCT-15 colon): 16.1 µM
TGI (HCT-15 colon): 30 µM
GI50 (PC-3 prostate): 14.6 µM
TGI (PC-3 prostate): 28.4 µM
GI50 (K-562 leukemia): 13.9 µM
TGI (K-562 leukemia): 27.3 µM
GI50 (UACC-62 melanoma): 9.36 µM
TGI (UACC-62 melanoma): 21.7 µM
GI50 (SF-539 CNS): 16.1 µM
TGI (SF-539 CNS): 29.8 µM
GI50 (CAKI-1 renal): 4.61 µM
TGI (CAKI-1 renal): 13.1 µM
GI50 (HS 578T breast): 13.4 µM
TGI (HS 578T breast): 26.3 µM
GI50 (MDA-MB-468 breast): 11.8 µM
TGI (MDA-MB-468 breast): 24.1 µM
GI50 (NCI-H522 lung): 14 µM
TGI (NCI-H522 lung): 27.1 µM
GI50 (COLO 205 colon): 18.4 µM
TGI (COLO 205 colon): 32.6 µM
GI50 (MOLT-4 leukemia): 12.7 µM
TGI (MOLT-4 leukemia): 25.4 µM
GI50 (SK-MEL-28 melanoma): 13.5 µM
TGI (SK-MEL-28 melanoma): 26.4 µM
GI50 (A549 NSCLC): 16.7 µM
TGI (A549 NSCLC): 31.7 µM
GI50 (BT-549 breast): 14.6 µM
TGI (BT-549 breast): 27.8 µM
GI50 (TK-10 renal): 14.2 µM
TGI (TK-10 renal): 32.3 µM
GI50 (MCF7 breast): 14.7 µM
TGI (MCF7 breast): 28.2 µM
GI50 (EKVX NSCLC): 13.8 µM
TGI (EKVX NSCLC): 27.1 µM
GI50 (OVCAR-4 ovarian): 15.4 µM
TGI (OVCAR-4 ovarian): 29.6 µM
GI50 ([…]-0 renal): 13.6 µM
TGI (786-0 renal): 26.7 µM
GI50 (SK-MEL-2 melanoma): 14.5 µM
TGI (SK-MEL-2 melanoma): 27.7 µM
GI50 (SNB-75 CNS): 12.6 µM
TGI (SNB-75 CNS): 25.2 µM
GI50 (SW-620 colon): 17.5 µM
TGI (SW-620 colon): 31.6 µM
GI50 (UACC-257 melanoma): 12.4 µM
TGI (UACC-257 melanoma): 24.9 µM
GI50 (NCI-H226 lung): 12.1 µM
TGI (NCI-H226 lung): 26.8 µM
GI50 (CCRF-CEM leukemia): 13.8 µM
TGI (CCRF-CEM leukemia): 26.8 µM
GI50 (HCC-2998 colon): 13.2 µM
TGI (HCC-2998 colon): 26.2 µM
GI50 (SNB-19 CNS): 18.7 µM
TGI (SNB-19 CNS): 33.9 µM
GI50 (OVCAR-8 ovarian): 14.2 µM
TGI (OVCAR-8 ovarian): 27.4 µM
GI50 (MALME-3M melanoma): 12.2 µM
TGI (MALME-3M melanoma): 24.6 µM
GI50 (SN12C renal): 13.7 µM
TGI (SN12C renal): 26.7 µM
GI50 (LOX IMVI melanoma): 14 µM
TGI (LOX IMVI melanoma): 27.1 µM
GI50 (M14 melanoma): 17 µM
TGI (M14 melanoma): 30.8 µM
GI50 (T-47D breast): 13.8 µM
TGI (T-47D breast): 26.8 µM
GI50 (NCI/ADR-RES ovarian): 17.7 µM
TGI (NCI/ADR-RES ovarian): 35.9 µM
